Like-named read-outs stand apart in the source and are kept apart here. No end group written: not given here.

One data set concerns BKS.Cg WT mice. Put plainly: Bioavailability: IPGTT, oral PIN/PLA GLP-1 vs intraperitoneal soluble peptide, serum glucose AUC. The class given is in vivo. How it is done: All mice were then injected intraperitoneally with glucose (3 mg/ml in 0.2 ml saline). Blood was collected at time 0 (pre-glucose) and at indicated times post-glucose. Serum glucose levels were determined as described above.

The conditions of data set [1]: oral, relative to intravenous administration of GLP-1; cited from earlier work.
Data set [2] deals with T1, GLP-1 receptor (Homo sapiens, UniProt P43220). Particulars: cited from earlier work.
T1 sequence (P43220 24-463, species assumed): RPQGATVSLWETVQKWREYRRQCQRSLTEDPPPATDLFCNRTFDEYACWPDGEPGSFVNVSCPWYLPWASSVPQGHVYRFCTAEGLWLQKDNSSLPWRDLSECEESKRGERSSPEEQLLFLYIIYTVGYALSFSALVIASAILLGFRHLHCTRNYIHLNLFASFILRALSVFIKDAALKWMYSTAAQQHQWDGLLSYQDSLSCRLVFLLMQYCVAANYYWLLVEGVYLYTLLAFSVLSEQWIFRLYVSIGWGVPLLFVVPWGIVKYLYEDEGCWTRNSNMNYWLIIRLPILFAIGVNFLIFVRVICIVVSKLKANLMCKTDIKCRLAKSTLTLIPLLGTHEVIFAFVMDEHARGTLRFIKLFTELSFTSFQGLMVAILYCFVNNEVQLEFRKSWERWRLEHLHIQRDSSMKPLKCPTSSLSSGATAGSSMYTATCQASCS
In data set [3] the target is T1, GLP-1 receptor. To be noted: cited from earlier work. This is another data set of the same source.
A further data set concerns type 2 diabetic patients. To be noted: cited from earlier work.

With GLP-1 (7-36 amide) [Free], in the data set with BKS.Cg WT mice (30 ug GLP-1/mouse, Free = intraperitoneal soluble peptide, Encap = oral PIN/PLA particles), the “AUC 30 ug (serum glucose area under the curve)” value was 7515. The “AUC 90 ug (serum glucose area under the curve)” value with BKS.Cg WT mice (90 ug GLP-1/mouse, Free = intraperitoneal soluble peptide, Encap = oral PIN/PLA particles) was found to be 7425. The “AUC 250 ug (serum glucose area under the curve)” value in the data set with BKS.Cg WT mice (250 ug GLP-1/mouse, Free = intraperitoneal soluble peptide, Encap = oral PIN/PLA particles) is 6262. Also, in the data set on BKS.Cg WT mice (250 μg GLP-1, oral particles vs intraperitoneal soluble peptide), the “effect on blood glucose in IPGTT (in words)” value is on record as “superior”. Also, the mean absolute bioavailability in data set [1] is 4%.
“GLP-1(9-36)-NH2 (EGTFTSDVSSYLEGQAAKEFIAWLVKGR-NH2; UniProt P01275 100-127, looked up, fragment)”: the “lower binding affinity compared to the intact peptide” value with GLP-1 receptor [2] is 100 fold. Also, the “decrease in agonistic activity” value with GLP-1 receptor [3] is on record as above 10000 fold.
“rGLP-1: rGLP-1 given by continuous infusion in a cited study”: the “decrease in fasting serum glucose” value is 22.7 mg/dL with type 2 diabetic patients (1.25 pmol/kg/min), 37.0 mg/dL in the data set on type 2 diabetic patients (2.5 pmol/kg/min), 53.9 mg/dL in the data set with type 2 diabetic patients (5.0 pmol/kg/min) and 76.2 mg/dL with type 2 diabetic patients (8.5 pmol/kg/min).
